Each block holds one compound with its values, some of them ahead of it.
How the values were obtained:
[1] = target: T1, Tyrosine-protein kinase BTK (Homo sapiens, UniProt Q06187); assay: Inhibition of recombinant full length BTK (unknown origin) expressed in baculovirus infected Sf9 cells using Biotin-EQEDEPEGDYFEWLE-NH2 peptide as substrate incubated for 60 mins followed by further incubation with substrate and ATP for 120 mins by TR-FRET assay
[2] = target: T1, Tyrosine-protein kinase BTK; assay: Inhibition of BTK in human PBMC assessed as reduction in cell surface CD69 expression preincubated for 1 hr followed by stimulation with goat anti-human IgM F(ab')2 for 18 hrs by immunostaining analysis; type: tissue-based
[3] = target: T1, Tyrosine-protein kinase BTK; assay: Inhibition of BTK in human whole blood assessed as reduction in cell surface CD69 expression preincubated for 1 hr followed by stimulation with anti-CD79b for 3 hrs by immunostaining analysis; type: tissue-based
[4] = target: Tyrosine-protein kinase FRK (Homo sapiens, UniProt P42685); assay: Inhibition of FRK (unknown origin)
Rattus norvegicus = assay: Antiarthritic activity in Lewis rat model of collagen-induced arthritis assessed as decrease in paw thickness at 15 to 120 mg/kg, po qd and measured for 30 days; type: functional, organism-based; conditions: dose mg/kg 15-120, time 30.0 day
[5] = Clearance in Wistar Han rat at 2 mg/kg, iv; type: ADME, organism-based; conditions: in vivo
[6] = Clearance in Beagle dog at 1 mg/kg, iv; type: ADME, organism-based, Canis lupus familiaris; conditions: in vivo
[7] = Volume of distribution at steady state in Wistar Han rat at 2 mg/kg, iv; type: ADME, organism-based; conditions: in vivo, read-out: Vdss
[8] = target: Tyrosine-protein kinase Fyn (Homo sapiens, UniProt P06241); assay: Inhibition of FYN (unknown origin)
[9] = Volume of distribution at steady state in Beagle dog at 1 mg/kg, iv; type: ADME, organism-based, Canis lupus familiaris; conditions: in vivo, read-out: Vdss
[10] = Half life in Wistar Han rat at 2 mg/kg, iv; type: ADME, organism-based; conditions: in vivo
[11] = target: Receptor tyrosine-protein kinase erbB-4 (Homo sapiens, UniProt Q15303); assay: Inhibition of ERBB4 (unknown origin)
[12] = Oral bioavailability in Beagle dog at 2 mg/kg; type: ADME, organism-based, Canis lupus familiaris; conditions: in vivo
[13] = Tmax in Wistar Han rat at 5 mg/kg, po; type: ADME, organism-based; conditions: in vivo
[14] = target: Tyrosine-protein kinase CSK (Homo sapiens, UniProt P41240); assay: Inhibition of CSK (unknown origin)
[15] = Cmax in Beagle dog at 2 mg/kg, po; type: ADME, organism-based, Canis lupus familiaris; set-up: route oral, dose 2 mg/kg; conditions: in vivo
[16] = target: T2, Tyrosine-protein kinase TXK (Homo sapiens, UniProt P42681); assay: Inhibition of TXK (unknown origin)
T2 sequence (P42681 whole entry): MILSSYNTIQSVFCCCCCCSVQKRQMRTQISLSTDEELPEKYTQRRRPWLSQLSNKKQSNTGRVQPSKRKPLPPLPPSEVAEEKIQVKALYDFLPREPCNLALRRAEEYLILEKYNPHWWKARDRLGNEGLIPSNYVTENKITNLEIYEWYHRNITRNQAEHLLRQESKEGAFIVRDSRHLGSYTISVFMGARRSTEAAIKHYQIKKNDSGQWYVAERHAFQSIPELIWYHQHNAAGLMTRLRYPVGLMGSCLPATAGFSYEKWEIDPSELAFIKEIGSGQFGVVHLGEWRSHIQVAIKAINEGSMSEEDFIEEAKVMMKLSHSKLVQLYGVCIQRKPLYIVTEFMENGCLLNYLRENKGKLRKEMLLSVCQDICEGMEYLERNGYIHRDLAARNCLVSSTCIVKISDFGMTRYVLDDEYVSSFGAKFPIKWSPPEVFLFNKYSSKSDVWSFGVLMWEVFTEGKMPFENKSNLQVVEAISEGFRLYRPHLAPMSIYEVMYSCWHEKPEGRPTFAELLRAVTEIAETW

[17] = target: Tyrosine-protein kinase Fgr (Homo sapiens, UniProt P09769); assay: Inhibition of FGR (unknown origin)
[18] = Tmax in Beagle dog at 2 mg/kg, po; type: ADME, organism-based, Canis lupus familiaris; conditions: in vivo
[19] = target: Protein-tyrosine kinase 6 (Homo sapiens, UniProt Q13882); assay: Inhibition of PTK6 (unknown origin)
[20] = target: Tyrosine-protein kinase Yes (Homo sapiens, UniProt P07947); assay: Inhibition of YES1 (unknown origin)
[21] = AUC in Beagle dog at 1 mg/kg, iv; type: ADME, organism-based, Canis lupus familiaris; set-up: dose 1 mg/kg; conditions: in vivo
[22] = target: Tyrosine-protein kinase Srms (Homo sapiens, UniProt Q9H3Y6); assay: Inhibition of SRMS (unknown origin)
[23] = target: Tyrosine-protein kinase Lyn (Homo sapiens, UniProt P07948); assay: Inhibition of LYNB (unknown origin)
[24] = target: Proto-oncogene tyrosine-protein kinase Src (Homo sapiens, UniProt P12931); assay: Inhibition of SRC (unknown origin)
[25] = Half life in Beagle dog at 1 mg/kg, iv; type: ADME, organism-based, Canis lupus familiaris; conditions: in vivo
[26] = target: Tyrosine-protein kinase Blk (Homo sapiens, UniProt P51451); assay: Inhibition of BLK (unknown origin)
[27] = target: T3, Tyrosine-protein kinase Tec (Homo sapiens, UniProt P42680); assay: Inhibition of TEC (unknown origin)
T3 sequence (P42680 whole entry): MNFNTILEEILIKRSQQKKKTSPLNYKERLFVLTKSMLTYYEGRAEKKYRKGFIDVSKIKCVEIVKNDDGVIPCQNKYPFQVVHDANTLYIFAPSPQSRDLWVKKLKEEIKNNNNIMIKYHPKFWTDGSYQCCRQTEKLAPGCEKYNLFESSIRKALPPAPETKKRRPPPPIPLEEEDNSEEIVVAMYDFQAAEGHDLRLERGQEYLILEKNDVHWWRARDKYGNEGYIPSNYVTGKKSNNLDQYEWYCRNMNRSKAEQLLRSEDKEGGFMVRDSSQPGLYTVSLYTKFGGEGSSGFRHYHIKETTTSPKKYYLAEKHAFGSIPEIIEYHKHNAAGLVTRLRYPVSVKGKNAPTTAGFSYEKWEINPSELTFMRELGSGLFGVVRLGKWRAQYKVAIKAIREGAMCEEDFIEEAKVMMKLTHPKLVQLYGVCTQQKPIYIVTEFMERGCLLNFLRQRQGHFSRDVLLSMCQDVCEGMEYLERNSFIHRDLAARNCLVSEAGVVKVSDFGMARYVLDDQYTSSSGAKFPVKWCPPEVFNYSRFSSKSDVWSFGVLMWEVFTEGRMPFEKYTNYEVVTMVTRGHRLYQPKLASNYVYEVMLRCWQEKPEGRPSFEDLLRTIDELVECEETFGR

[28] = target: T4, Cytoplasmic tyrosine-protein kinase BMX (Homo sapiens, UniProt P51813); assay: Inhibition of BMX (unknown origin)
T4 sequence (P51813 whole entry): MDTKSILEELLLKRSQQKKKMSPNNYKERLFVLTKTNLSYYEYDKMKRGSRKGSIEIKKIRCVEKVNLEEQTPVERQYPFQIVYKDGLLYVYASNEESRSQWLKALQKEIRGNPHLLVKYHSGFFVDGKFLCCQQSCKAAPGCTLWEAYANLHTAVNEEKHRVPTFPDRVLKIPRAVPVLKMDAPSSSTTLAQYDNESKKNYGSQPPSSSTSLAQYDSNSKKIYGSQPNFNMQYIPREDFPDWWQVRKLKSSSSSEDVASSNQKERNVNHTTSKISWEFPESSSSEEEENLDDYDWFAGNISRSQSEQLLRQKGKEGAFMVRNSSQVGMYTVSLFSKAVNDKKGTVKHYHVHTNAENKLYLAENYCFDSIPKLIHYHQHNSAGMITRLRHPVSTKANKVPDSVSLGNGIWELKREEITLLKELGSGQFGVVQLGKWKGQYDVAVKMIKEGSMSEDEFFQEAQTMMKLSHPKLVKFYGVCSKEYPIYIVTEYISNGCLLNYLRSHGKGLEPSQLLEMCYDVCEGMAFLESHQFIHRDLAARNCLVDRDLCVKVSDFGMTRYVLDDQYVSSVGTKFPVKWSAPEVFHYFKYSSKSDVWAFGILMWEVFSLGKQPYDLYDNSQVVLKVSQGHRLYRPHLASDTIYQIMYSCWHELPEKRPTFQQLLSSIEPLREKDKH

[29] = AUC in Wistar Han rat at 2 mg/kg, iv; type: ADME, organism-based; set-up: dose 2 mg/kg; conditions: in vivo
[30] = target: Tyrosine-protein kinase Lck (Homo sapiens, UniProt P06239); assay: Inhibition of LCK (unknown origin)
[31] = Cmax in Wistar Han rat at 5 mg/kg, po; type: ADME, organism-based; set-up: route oral, dose 5 mg/kg; conditions: in vivo
[32] = Oral bioavailability in Wistar Han rat at 5 mg/kg; type: ADME, organism-based; conditions: Wistar Han, in vivo

T1 sequence (Q06187 whole entry): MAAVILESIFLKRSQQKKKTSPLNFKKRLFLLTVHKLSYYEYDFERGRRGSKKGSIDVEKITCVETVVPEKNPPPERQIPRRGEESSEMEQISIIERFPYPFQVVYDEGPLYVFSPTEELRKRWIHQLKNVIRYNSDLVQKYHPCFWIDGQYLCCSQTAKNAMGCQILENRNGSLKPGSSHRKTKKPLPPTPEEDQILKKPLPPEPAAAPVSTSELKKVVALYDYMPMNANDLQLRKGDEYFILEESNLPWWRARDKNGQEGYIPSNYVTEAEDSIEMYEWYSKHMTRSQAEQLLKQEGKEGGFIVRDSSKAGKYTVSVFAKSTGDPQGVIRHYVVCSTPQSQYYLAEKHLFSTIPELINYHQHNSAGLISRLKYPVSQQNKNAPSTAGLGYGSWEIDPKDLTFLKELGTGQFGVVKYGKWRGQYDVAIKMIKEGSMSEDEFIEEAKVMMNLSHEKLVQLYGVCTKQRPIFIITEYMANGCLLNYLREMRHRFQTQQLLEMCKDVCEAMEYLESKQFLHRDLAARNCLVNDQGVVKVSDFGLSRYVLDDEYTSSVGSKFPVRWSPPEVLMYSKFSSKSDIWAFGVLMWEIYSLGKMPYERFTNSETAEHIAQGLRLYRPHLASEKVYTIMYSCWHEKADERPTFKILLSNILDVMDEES
Chain of Tyrosine-protein kinase FRK (P42685 whole entry): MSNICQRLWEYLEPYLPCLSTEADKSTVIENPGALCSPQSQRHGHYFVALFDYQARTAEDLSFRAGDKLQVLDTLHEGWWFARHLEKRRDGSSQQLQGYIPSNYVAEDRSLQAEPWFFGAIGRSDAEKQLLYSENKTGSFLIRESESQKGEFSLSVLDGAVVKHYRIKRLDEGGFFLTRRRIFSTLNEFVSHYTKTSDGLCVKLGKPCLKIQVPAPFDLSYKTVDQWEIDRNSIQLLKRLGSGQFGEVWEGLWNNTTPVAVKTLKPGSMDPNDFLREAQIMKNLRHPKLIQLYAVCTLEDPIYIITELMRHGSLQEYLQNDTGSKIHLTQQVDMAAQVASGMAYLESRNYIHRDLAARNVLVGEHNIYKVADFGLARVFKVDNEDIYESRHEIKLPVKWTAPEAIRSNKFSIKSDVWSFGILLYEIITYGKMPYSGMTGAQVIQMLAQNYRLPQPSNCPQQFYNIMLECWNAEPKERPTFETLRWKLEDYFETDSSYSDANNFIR
Chain of Tyrosine-protein kinase Srms (Q9H3Y6 whole entry): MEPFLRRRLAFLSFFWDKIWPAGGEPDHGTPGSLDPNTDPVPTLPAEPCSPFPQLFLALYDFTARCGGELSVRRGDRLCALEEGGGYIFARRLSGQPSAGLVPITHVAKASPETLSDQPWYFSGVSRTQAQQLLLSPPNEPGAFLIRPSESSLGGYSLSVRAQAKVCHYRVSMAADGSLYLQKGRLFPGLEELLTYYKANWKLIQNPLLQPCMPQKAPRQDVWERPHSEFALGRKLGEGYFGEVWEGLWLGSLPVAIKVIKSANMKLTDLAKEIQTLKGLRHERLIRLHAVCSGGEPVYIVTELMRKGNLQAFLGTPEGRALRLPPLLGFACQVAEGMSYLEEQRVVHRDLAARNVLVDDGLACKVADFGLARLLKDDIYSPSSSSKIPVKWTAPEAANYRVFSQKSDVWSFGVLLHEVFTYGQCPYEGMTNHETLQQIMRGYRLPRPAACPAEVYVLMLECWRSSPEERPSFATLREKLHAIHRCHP
Chain of Protein-tyrosine kinase 6 (Q13882 whole entry): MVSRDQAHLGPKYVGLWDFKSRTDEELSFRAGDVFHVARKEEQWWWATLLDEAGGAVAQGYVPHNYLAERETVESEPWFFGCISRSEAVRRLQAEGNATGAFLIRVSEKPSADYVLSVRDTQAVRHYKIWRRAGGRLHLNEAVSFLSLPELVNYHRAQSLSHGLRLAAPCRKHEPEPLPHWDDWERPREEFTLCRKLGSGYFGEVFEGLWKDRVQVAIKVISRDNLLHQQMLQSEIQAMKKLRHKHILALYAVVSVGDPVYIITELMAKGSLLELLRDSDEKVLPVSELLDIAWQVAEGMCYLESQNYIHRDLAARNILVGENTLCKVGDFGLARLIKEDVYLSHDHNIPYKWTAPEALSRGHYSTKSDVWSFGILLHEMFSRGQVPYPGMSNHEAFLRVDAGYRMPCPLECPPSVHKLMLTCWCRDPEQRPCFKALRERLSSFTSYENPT
Chain of Tyrosine-protein kinase Yes (P07947 whole entry): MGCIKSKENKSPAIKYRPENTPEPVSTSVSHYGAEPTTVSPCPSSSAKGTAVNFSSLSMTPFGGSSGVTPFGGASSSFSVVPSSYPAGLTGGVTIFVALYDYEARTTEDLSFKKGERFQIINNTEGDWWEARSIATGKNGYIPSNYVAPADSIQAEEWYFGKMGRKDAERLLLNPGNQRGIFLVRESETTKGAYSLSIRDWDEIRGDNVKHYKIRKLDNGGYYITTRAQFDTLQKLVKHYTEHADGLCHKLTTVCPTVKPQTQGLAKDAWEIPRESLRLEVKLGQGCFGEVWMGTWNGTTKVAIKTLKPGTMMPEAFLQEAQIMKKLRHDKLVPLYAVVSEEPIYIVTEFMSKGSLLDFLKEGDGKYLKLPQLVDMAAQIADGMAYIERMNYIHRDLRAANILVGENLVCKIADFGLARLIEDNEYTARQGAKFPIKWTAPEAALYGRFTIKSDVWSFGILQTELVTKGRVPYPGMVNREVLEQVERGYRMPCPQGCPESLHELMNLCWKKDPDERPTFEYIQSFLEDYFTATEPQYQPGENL
Chain of Tyrosine-protein kinase Blk (P51451 whole entry): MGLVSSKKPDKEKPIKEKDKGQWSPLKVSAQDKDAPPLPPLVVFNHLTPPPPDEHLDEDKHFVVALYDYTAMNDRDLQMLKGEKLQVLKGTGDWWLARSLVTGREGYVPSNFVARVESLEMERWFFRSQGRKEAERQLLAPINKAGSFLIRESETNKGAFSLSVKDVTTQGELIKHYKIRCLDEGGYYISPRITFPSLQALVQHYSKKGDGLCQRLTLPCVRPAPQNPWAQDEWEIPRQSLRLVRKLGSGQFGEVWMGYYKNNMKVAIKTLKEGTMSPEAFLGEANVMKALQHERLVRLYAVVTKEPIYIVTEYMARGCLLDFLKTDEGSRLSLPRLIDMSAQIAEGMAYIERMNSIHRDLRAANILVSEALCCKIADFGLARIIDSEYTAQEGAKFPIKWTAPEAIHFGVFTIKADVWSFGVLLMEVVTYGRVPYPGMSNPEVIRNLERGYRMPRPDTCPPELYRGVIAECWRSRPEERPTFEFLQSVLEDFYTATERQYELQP
Chain of Proto-oncogene tyrosine-protein kinase Src (P12931 2-536 limits assumed): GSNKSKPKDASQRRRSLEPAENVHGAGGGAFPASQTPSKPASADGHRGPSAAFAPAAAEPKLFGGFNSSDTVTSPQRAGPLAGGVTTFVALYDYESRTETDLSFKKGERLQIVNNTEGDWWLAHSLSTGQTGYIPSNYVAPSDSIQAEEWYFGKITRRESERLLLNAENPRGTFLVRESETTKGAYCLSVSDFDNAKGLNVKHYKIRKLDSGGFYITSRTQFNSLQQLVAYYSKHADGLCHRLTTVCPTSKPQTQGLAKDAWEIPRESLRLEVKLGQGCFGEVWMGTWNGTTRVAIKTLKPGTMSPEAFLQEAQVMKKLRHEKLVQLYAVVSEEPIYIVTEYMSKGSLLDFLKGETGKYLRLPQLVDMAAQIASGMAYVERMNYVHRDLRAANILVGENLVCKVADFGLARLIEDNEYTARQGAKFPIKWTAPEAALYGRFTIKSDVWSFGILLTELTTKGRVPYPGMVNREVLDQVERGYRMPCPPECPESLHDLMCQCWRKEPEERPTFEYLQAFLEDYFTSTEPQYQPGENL
Chain of Receptor tyrosine-protein kinase erbB-4 (Q15303 whole entry): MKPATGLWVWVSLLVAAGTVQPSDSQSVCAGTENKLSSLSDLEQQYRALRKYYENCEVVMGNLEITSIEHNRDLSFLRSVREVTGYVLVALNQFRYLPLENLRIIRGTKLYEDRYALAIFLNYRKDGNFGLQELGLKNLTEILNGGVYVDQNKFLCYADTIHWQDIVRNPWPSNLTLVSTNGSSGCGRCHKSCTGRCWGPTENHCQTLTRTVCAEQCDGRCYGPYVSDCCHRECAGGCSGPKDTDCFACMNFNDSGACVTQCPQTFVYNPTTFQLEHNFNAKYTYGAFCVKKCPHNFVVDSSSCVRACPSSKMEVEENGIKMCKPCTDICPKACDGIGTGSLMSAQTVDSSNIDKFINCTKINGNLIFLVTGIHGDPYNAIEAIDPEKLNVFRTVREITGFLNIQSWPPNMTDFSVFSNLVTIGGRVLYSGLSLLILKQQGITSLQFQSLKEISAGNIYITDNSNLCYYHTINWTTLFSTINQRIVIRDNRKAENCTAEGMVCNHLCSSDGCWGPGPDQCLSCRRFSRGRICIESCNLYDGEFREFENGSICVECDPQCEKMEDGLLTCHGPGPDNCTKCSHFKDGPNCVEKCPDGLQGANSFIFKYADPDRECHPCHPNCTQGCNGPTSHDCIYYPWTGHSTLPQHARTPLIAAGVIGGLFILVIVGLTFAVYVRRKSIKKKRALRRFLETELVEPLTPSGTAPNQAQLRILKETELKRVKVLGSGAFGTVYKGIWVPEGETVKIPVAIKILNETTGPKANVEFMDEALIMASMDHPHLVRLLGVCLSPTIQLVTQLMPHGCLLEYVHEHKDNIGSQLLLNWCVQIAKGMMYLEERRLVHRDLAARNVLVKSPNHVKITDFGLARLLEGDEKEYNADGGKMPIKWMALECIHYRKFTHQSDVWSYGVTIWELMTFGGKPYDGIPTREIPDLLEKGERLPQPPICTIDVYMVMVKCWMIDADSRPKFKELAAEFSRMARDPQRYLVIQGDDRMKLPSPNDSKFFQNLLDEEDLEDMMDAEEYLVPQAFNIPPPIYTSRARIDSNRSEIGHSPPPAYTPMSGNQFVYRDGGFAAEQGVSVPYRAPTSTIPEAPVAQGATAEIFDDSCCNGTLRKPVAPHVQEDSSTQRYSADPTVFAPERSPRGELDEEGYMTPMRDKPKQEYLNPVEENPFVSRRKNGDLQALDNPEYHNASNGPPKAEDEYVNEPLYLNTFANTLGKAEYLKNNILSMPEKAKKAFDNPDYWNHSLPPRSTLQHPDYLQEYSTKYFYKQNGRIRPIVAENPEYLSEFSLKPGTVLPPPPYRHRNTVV

IC50 [2]: 11 nM
SMILES: Nc1nccn2c([C@@H]3CC[C@H]4CCC(=O)N4C3)nc(-c3ccc(C(=O)Nc4cc(C(F)(F)F)ccn4)cc3O)c12

IC50 [2]: 7.2 nM
IC50 [3]: 263 nM
SMILES: Nc1nccn2c([C@H]3CN4C(=O)CC[C@@H]4CO3)nc(-c3ccc(C(=O)Nc4cc(C(F)(F)F)ccn4)cc3)c12

IC50 [4]: 154 nM
clearance [5]: 53 mL/min/kg
clearance [6]: 20 mL/min/kg
Vd [7]: 4 L/kg
IC50 [8]: 1230 nM
Vd [9]: 3 L/kg
half-life [10]: 3 h
IC50 [11]: 160 nM
bioavailability [12]: 108%
Tmax [13]: 2.1 h
IC50 [14]: 227 nM
Cmax [15]: 1100 nM
IC50 [16]: 102 nM
IC50 [17]: 64 nM
Tmax [18]: 1.5 h
IC50 [19]: 84 nM
IC50 [20]: 54 nM
AUC [21]: 1.6 µM·h
IC50 [22]: 16 nM
IC50 [23]: 162 nM
IC50 [24]: 71 nM
half-life [25]: 3.4 h
IC50 [26]: 101 nM
IC50 [27]: 67 nM
IC50 [28]: 19 nM
AUC [29]: 1.1 µM·h
IC50 [30]: 26 nM
Cmax [31]: 50 nM
bioavailability [32]: 9.5%
SMILES: COc1cc(C(=O)Nc2cc(C(F)(F)F)ccn2)ccc1-c1nc([C@@H]2CC[C@H]3CCC(=O)N3C2)n2ccnc(N)c12
Activity (Rattus norvegicus): Dose-dependent effect

IC50 [1]: 0.13 nM
IC50 [2]: 4.9 nM
IC50 [3]: 86 nM
SMILES: C[C@@H]1OC(=O)N2C[C@H](c3nc(-c4ccc(C(=O)Nc5cc(C(F)(F)F)ccn5)cc4)c4c(N)nccn34)CC[C@@H]12

IC50 [2]: 403 nM
SMILES: CN1C[C@@H]2CC[C@@H](c3nc(-c4ccc(C(=O)Nc5cc(C(F)(F)F)ccn5)cc4)c4c(N)nccn34)CN2C1=O

IC50 [1]: 0.26 nM
IC50 [2]: 16 nM
IC50 [3]: 104 nM
SMILES: CN1CC(=O)N2C[C@H](c3nc(-c4ccc(C(=O)Nc5cc(C(F)(F)F)ccn5)cc4F)c4c(N)nccn34)CC[C@H]2C1

More lines, now with the values behind:

SMILES: Nc1nccn2c([C@@H]3CC[C@H]4CCC(=O)N4C3)nc(-c3ccc(C(=O)Nc4cc(C(F)(F)F)ccn4)cc3C(F)(F)F)c12
IC50 [1]: > 1000 nM
IC50 [2]: > 3000 nM

SMILES: N#Cc1cc(C(=O)Nc2cc(C(F)(F)F)ccn2)ccc1-c1nc([C@@H]2CC[C@H]3CCC(=O)N3C2)n2ccnc(N)c12
IC50 [2]: 267 nM

SMILES: NC(=O)c1cc(C(=O)Nc2cc(C(F)(F)F)ccn2)ccc1-c1nc([C@@H]2CC[C@H]3CCC(=O)N3C2)n2ccnc(N)c12
IC50 [2]: > 3000 nM

SMILES: C[C@H]1CC[C@@H](c2nc(-c3ccc(C(=O)Nc4cc(C(F)(F)F)ccn4)cc3F)c3c(N)nccn23)CN1C(=O)C1CC1
AUC [21]: 20 µM·h
AUC [29]: 3.1 µM·h

SMILES: Nc1nccn2c([C@@H]3CC[C@H]4CCCC(=O)N4C3)nc(-c3ccc(C(=O)Nc4cc(C(F)(F)F)ccn4)cc3F)c12
IC50 [2]: 39 nM

SMILES: Nc1nccn2c([C@@H]3CC[C@H]4COCC(=O)N4C3)nc(-c3ccc(C(=O)Nc4cc(C(F)(F)F)ccn4)cc3F)c12
IC50 [1]: 0.1 nM
IC50 [2]: 5.8 nM
IC50 [3]: 78 nM
